Among the data in patent US20260226048A1, “MULTI-CYCLIC IRAK AND FLT3 INHIBITING COMPOUNDS AND USES THEREOF” (CHILDREN'S HOSPITAL MEDICAL CENTER, priority 2023, published 2026) are IC50 values, retold here.

Where two headings read alike, the source gives them in different places. Some results are limits rather than exact numbers.

For assay [1], the target named is T1, IRAK1 (Homo sapiens, UniProt P51617).
T1 construct: purchased Reaction Biology (RBC HotSpot)
Description: RBC HotSpot Kinase Assay, IRAK1. It counts as biochemical. As to conditions: isolated kinase enzyme, 33P-ATP, P81 filter-binding. In outline: (§1)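 Radiometric HotSpot assay of catalytic activity with isolated recombinant kinase, possibly truncated or kinase domain only. Buffer: 20 mM Hepes pH 7.5, 10 mM MgCl2, 1 mM EGTA, 0.01% Brij35, 0.02 mg/ml BSA, 0.1 mM Na3VO4, 2 mM DTT, 1% DMSO, with cofactors specific to each kinase.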

Assay [2] concerns the target T2, IRAK4 (Homo sapiens, UniProt Q9NWZ3).
T2 sequence (Q9NWZ3 1-460): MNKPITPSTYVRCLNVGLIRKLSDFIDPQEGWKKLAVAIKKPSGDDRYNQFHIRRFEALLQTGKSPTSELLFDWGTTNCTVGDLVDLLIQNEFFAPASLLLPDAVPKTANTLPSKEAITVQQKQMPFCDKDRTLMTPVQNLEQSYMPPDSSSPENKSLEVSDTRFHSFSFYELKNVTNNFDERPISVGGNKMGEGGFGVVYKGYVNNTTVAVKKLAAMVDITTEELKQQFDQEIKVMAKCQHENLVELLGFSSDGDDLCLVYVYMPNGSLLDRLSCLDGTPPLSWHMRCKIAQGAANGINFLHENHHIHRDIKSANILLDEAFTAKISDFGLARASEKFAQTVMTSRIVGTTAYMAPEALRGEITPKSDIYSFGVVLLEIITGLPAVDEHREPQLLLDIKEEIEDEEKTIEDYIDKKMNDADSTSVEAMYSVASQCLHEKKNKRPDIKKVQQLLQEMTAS
The assay is described as follows: RBC HotSpot Kinase Assay, IRAK4. The format is biochemical. Set-up: purchased Reaction Biology (RBC HotSpot). As to conditions: isolated kinase enzyme, 33P-ATP, P81 filter-binding. In outline:
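Radiometric filter-binding activity assay with isolated recombinant kinase (construct may be truncated or catalytic domain only) in 20 mM Hepes pH 7.5, 10 mM MgCl2, 1 mM EGTA, 2 mM DTT, 1% DMSO. Compound preincubated 20 min with kinase/substrate; reaction started with 33P-ATP, run 2 h at room temperature.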

For assay [3], the target named is T3, FLT3 (Homo sapiens, UniProt P36888).
T3 sequence (P36888 27-993): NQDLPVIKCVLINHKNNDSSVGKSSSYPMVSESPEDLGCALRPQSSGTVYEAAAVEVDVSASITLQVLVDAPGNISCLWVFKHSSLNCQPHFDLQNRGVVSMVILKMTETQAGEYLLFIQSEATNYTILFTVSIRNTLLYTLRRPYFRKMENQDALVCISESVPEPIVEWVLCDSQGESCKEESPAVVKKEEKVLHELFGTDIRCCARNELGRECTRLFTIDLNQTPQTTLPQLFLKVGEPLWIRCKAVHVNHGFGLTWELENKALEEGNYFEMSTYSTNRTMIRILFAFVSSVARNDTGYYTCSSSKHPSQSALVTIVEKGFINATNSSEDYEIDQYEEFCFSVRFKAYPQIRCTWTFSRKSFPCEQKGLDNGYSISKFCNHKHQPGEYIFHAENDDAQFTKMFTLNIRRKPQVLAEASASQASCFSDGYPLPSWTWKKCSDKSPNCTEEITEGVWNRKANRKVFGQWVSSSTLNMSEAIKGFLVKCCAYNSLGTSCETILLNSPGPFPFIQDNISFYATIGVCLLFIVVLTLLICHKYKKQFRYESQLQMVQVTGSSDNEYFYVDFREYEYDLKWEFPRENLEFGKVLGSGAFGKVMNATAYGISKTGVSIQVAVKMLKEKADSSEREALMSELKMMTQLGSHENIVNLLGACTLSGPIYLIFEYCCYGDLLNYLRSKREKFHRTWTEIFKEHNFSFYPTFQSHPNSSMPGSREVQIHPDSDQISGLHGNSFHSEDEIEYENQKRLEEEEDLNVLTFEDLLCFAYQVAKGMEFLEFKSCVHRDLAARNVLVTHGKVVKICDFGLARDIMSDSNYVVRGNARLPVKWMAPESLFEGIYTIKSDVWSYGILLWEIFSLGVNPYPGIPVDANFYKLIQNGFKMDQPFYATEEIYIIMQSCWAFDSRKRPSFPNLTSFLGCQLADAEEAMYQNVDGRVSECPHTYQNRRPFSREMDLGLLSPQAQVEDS
Description: RBC HotSpot Kinase Assay, FLT3. It counts as biochemical. Set-up: purchased Reaction Biology (RBC HotSpot). As to conditions: isolated kinase enzyme, 33P-ATP, P81 filter-binding. In outline:
as §1

The subject of assay [4] is NF-κB-inducible SEAP reporter in THP-1-Blue NF-κB cells. Description: NF-kB SEAP reporter assay in THP-1-Blue NF-κB cells. It counts as cell-based. As to conditions: 24 hours. The method, then:
THP-1-Blue NF-κB cells (InvivoGen) carrying a stable integrated NF-κB-inducible secreted embryonic alkaline phosphatase (SEAP) reporter construct were plated at a concentration of 1×10^5 cells per well. The cells were stimulated with Pam3CSK4 (1 ng/mL) or hIL1B (1 ng/mL). After 10-20 minutes, the cells were then treated with vehicle (DMSO) or serial dilutions of the test compounds (10 doses tested for each test compound, with a 1:10 dilution series starting at 1 μM or 3 μM) with a final volume of 200 μL for 24 hours at 37° C. After 24 hours, the cells were centrifuged and 20 μL supernatant was incubated with 180 μL QUANTI-Blue reagent at 37° C. for 30-60 minutes. The levels of NF-κB-induced was measured in a microplate reader at 620 nm.

For assay [5], the system named is MOLM14 F691L cells. Description: MOLM14 F691L cell viability assay (Cell Titer Glo). The format is cell-based. The note with it: Homo sapiens, MOLM-14; cell viability, Cell Titer Glo, 48 hours; read-out: MOLM14 F691L IC50. The procedure, abridged: (§2)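 MOLM14 cells with FLT3 D835Y or F691L kinase-domain resistance mutations seeded at 1000 cells/well and exposed to compound for 48 h under standard incubator conditions. Viability read by CellTiter-Glo luminescence after 15 min at room temperature.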

In assay [6] the test system is MOLM14 D835Y cells. Description: MOLM14 D835Y cell viability assay (Cell Titer Glo). The format is cell-based. The note with it: Homo sapiens, MOLM-14, 48 h, cell viability, Cell Titer Glo, 48 hours; read-out: MOLM14 D835Y IC50. The procedure, abridged: as §2
[7] abbreviates: THP-1-Blue NF-κB cells stimulated with Pam3CSK4 (1 ng/mL), read-out: NF-κB Pam3SCK4 IC50.
Where [8] appears, read: THP-1-Blue NF-κB cells stimulated with hIL1B (1 ng/mL), read-out: NF-κB IL1B IC50.

T1 sequence (P51617 whole entry): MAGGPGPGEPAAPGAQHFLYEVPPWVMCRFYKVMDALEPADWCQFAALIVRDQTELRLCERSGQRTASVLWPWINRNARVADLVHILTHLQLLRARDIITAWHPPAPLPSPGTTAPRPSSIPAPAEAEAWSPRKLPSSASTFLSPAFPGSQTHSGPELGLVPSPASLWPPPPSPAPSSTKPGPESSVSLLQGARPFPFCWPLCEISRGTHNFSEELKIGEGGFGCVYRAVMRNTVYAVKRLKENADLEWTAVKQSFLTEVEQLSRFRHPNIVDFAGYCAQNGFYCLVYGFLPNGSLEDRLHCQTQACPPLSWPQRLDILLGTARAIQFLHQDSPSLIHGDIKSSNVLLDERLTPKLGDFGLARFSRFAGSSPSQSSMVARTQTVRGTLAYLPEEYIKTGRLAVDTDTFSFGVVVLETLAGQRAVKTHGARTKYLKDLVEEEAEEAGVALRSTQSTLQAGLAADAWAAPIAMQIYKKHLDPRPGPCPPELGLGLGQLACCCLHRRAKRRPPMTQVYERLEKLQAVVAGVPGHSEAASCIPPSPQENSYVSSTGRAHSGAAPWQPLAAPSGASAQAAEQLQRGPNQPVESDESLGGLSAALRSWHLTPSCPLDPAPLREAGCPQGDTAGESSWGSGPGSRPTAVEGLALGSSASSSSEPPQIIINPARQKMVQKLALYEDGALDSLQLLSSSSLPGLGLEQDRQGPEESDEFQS

For the molecule `COc1cc2ncc(-c3nc(N[C@@H]4CCCNC4)ncc3F)n2nc1C1CC1` [Compound 3a, (R)-4-(6-cyclopropyl-7-methoxyimidazo[1,2-b]pyridazin-3-yl)-5-fluoro-N-(piperidin-3-yl)pyrimidin-2-amine], the half-inhibitory concentration (IC50) in assay [1] was 0.002 µM; in assay [2], less than 0.0005 µM; in assay [3] it was less than 0.0005 µM; in assay [4] (setting [7]), 0.04 µM; in assay [4] (setting [8]), 0.058 µM; in assay [5], 0.005 µM. Besides, the IC50 in assay [6] worked out at 0.001 µM.
As for `F[C@H]1CCNC[C@@H]1Nc1cncc(-c2cnc3cc(OC4CC4)c(C4CC4)nn23)n1` [Compound 13a, 6-(7-cyclopropoxy-6-cyclopropylimidazo[1,2-b]pyridazin-3-yl)-N-((3S,4S)-4-fluoropiperidin-3-yl)pyrazin-2-amine], the IC50 in assay [1] was 0.055 µM; in assay [2] it was 0.005 µM; in assay [3], less than 0.0005 µM; in assay [4] (setting [7]), 0.512 µM; in assay [4] (setting [8]), 0.334 µM; in assay [6] it was 0.115 µM.
Turning to `COc1cc2ncc(-c3ccnc(N[C@H]4CNCC[C@@H]4F)n3)n2nc1C1CC(F)(F)C1` [Compound 19a, 4-(6-(3,3-difluorocyclobutyl)-7-methoxyimidazo[1,2-b]pyridazin-3-yl)-N-((3S,4S)-4-fluoropiperidin-3-yl)pyrimidin-2-amine], the IC50 in assay [1] was 0.07 µM; in assay [2], 0.013 µM; in assay [3] it was less than 0.0005 µM; in assay [4] (setting [7]) it was 0.701 µM; in assay [4] (setting [8]) it was 0.567 µM; in assay [6], 0.051 µM.
In the case of `COc1cc2ncc(-c3nc(N[C@@H]4CCCNC4)ncc3F)n2nc1C1CC(F)(F)C1` [Compound 51a, (R)-4-(6-(3,3-difluorocyclobutyl)-7-methoxyimidazo[1,2-b]pyridazin-3-yl)-5-fluoro-N-(piperidin-3-yl)pyrimidin-2-amine], the IC50 in assay [1] is 0.003 µM; in assay [2] it was 0.003 µM; in assay [3], less than 0.0005 µM; in assay [4] (setting [7]), 0.136 µM; in assay [4] (setting [8]), 0.135 µM; in assay [6] it was 0.009 µM.
On to `COc1cc2ncc(-c3nc(N[C@@H]4CCCNC4)ncc3F)n2nc1C12CC(C1)C2` [Compound 68a, (R)-4-(6-(bicyclo[1.1.1]pentan-1-yl)-7-methoxyimidazo[1,2-b]pyridazin-3-yl)-5-fluoro-N-(piperidin-3-yl)pyrimidin-2-amine], for which the IC50 is 0.0009 µM in assay [1]; 0.0008 µM in assay [2]; less than 0.0005 µM in assay [3]; 0.144 µM in assay [4] (setting [7]); 0.108 µM in assay [4] (setting [8]); 0.02 µM in assay [5]. Also, the IC50 in assay [6] was 0.003 µM.
`COc1cc2ncc(-c3nc(N[C@@H]4CCCNC4)ncc3F)n2nc1C1COC1` [Compound 94a, (R)-5-fluoro-4-(7-methoxy-6-(oxetan-3-yl)imidazo[1,2-b]pyridazin-3-yl)-N-(piperidin-3-yl)pyrimidin-2-amine]: the IC50 in assay [1] was 0.028 µM; in assay [2] it was 0.004 µM; in assay [3], less than 0.0005 µM; in assay [4] (setting [7]) it was 0.188 µM; in assay [4] (setting [8]), 0.206 µM; in assay [5], 0.04 µM. Besides, in assay [6], the IC50 came out at 0.006 µM.
As for `COc1cc2ncc(-c3nc(N[C@H]4CNC[C@@H]4F)ncc3F)n2nc1N1CCOCC1` [Compound 119a, 5-fluoro-N-((3S,4S)-4-fluoropyrrolidin-3-yl)-4-(7-methoxy-6-morpholinoimidazo[1,2-b]pyridazin-3-yl)pyrimidin-2-amine], the IC50 in assay [1] is 0.001 µM; in assay [2] it was less than 0.0005 µM; in assay [3] it was less than 0.0005 µM; in assay [4] (setting [7]), 0.057 µM; in assay [4] (setting [8]) it was 0.069 µM; in assay [5], 0.045 µM. Also, the IC50 in assay [6] was 0.004 µM.
